Reference: patent publication US7807781B2, “Inhibitors of serine protease activity and their use in methods and compositions for treatment of viral infections” (The Regents of the University of Colorado, priority 1999, dated 2010)

Legend:
[1] = test system: HIV-1 strain A018A in MAGI-CCR-5 cells; type: cell-based; conditions: compared with FVYLI (FIG. 4); alone or in combination; not shown
[2] = test system: HIV-1 production in U1 cells; assay: U1 monocytic cell assay, IL-18-induced HIV-1 p24 antigen; type: cell-based
Source text: U1 monocytic cell assay. U1 cells are obtained from the AIDS Research and Reference Reagent Program, National Institute of Allergy and Infectious Diseases, NIH. U1 cells are maintained in T-175 polystyrene flasks (Falcon, Becton Dickinson, Franklin Lakes, N.J.) in medium and used when in log phase growth. Cells are counted in a hemacytometer, examined for viability by Trypan blue exclusion (>95% for all experiments) and resuspended in fresh medium at 2×10^6 per ml. Two-hundred fifty […] are added to wells of 24-well polystyrene tissue culture plates (Falcon), followed by the addition of medium or AAT to produce the final concentration to be tested in a volume of […]. After 1.0 hr of incubation (37° C., 5% CO2), 50 ml of medium (control) or stimulus diluted in medium are added to wells to produce the final concentration of stimulus to be tested. The final culture volumes are […] and contained 1×10^6 cells per ml. After 48 hr of incubation (37° C. and 5% CO2) 50 ml of 10% (vol/vol) Triton-X-100 (Fisher Scientific, Fair Lawn, N.J.) is added to each culture (final concentration of 1% vol/vol), and cultures are frozen and thawed once. This is followed by assay for HIV-1 p24 antigen by ELISA with a lower limit of detection of 31 pg/ml (NCI-Frederick Cancer Research and Development Center, Frederick, Md.). The disruption of cells due to the addition of Triton-X-100 and the freeze-thaw cycle produced cell lysates and enabled assessment of total (secreted and cell-associated) production of p24 antigen.
Data are presented as means±SEM. Group means are compared by ANOVA using Fisher's least significant difference. For data expressed as percent change, the values for p24 in control cultures (medium alone) are subtracted from those for each culture-containing stimulus. The p24 concentrations in cultures conducted in the presence of stimulus alone are set at 100%. Percent p24 in cultures containing stimulus and AAT are calculated by dividing the measured p24 by that present in cultures containing stimulus alone. The resultant fraction is expressed as a percent.
The U1 cell line is derived from human monocytic U937 cells into which 2 copies of HIV-1 provirus are incorporated into host genome. Exposing U1 cells to pro-inflammatory cytokines such as IL-18, IL-1, IL-6 and TNF, phorbol esters or hyperosmolarity results in the induction of HIV-1 as assessed by p24 antigen. Stimulation of U1 cells with 0.5 nM IL-18 induced large amounts of p24 antigen after 48 hr of incubation in 3 separate experiments. U1 cells cultured in medium alone (control) contained a mean of 41.3±11.5 pg/ml p24 antigen, which is increased 150-fold to 6,235±1,775 pg/ml p24 following stimulation with IL-18. […] At 1, 2 and 3 mg/ml AAT, the percent reductions observed compared to stimulation with IL-18 alone are 65±1.8, 93±3.0 and 98±1%, respectively.

NF-κB = assay: IL-18-induced NF-κB expression; type: cell-based; conditions: compared with IL-18 alone (lane 4)
[3] = test system: HIV-infected CCRF-CEM and uninfected Molt-4 cells; conditions: cited from earlier work

| Molecule | effect on HIV production in MAGI cells [1] | also measured |
| --- | --- | --- |
| AVFLM: short peptide related to C-terminal pentapeptide of AAT | more or less similar effect |  |
| Prolastin: commercially available purified variant of AAT sold by Bayer, used as control AAT preparation |  | anti-HIV activity ([2]; doses comparable to the composition of the invention (FIG. 6)): fails to display anti-HIV activity |
| FIIMI: short peptide related to C-terminal pentapeptide of AAT | more or less similar effect |  |
| Cc1cccc(Cc2nnc(C(=O)C(NC(=O)[C@@H]3CCCN3C(=O)[C@@H](NC(=O)OCc3ccccc3)C(C)C)C(C)C)o2)c1 (stereo partly shown) [P3 inh] |  | anti-HIV effect ([2]; same experimental condition as in Example 1 (FIG. 11)): significant anti-HIV effect; IL-18-induced NF-κB expression (NF-κB): reduced |
| FLMFI: short peptide related to C-terminal pentapeptide of AAT | more or less similar effect |  |
| FLFFI: short peptide related to C-terminal pentapeptide of AAT | more or less similar effect |  |
| FMLLI: short peptide related to C-terminal pentapeptide of AAT | more or less similar effect |  |
| FLFLI: short peptide related to C-terminal pentapeptide of AAT | more or less similar effect |  |
| FLFVV: short peptide related to C-terminal pentapeptide of AAT | more or less similar effect |  |
| FAFLM: short peptide related to C-terminal pentapeptide of AAT | more or less similar effect |  |
| FVFAM: short peptide related to C-terminal pentapeptide of AAT | more or less similar effect |  |
| FVYLI: carboxyterminal peptide derived but not necessarily identical to a respective C-terminal pentapeptide from AAT | more or less similar effect |  |
| FLFAV: short peptide related to C-terminal pentapeptide of AAT | more or less similar effect |  |
| FVFLA: short peptide related to C-terminal pentapeptide of AAT | more or less similar effect |  |
| FLFVL: short peptide related to C-terminal pentapeptide of AAT | more or less similar effect |  |
| FVFLM: short peptide related to C-terminal pentapeptide of AAT | more or less similar effect |  |
| FLFCI: short peptide related to C-terminal pentapeptide of AAT | more or less similar effect |  |
| FLVFI: short peptide related to C-terminal pentapeptide of AAT | more or less similar effect |  |
| FLMII: short peptide related to C-terminal pentapeptide of AAT | more or less similar effect |  |
| FVALM: short peptide related to C-terminal pentapeptide of AAT | more or less similar effect |  |
| UTI: Human urinary trypsin inhibitor, a protein indistinguishable from ITI (protein, UniProt P02760 206-352, looked up, Inter-alpha-trypsin inhibitor light chain) Inter-alpha-trypsin inhibitor …: AVLPQEEEGSGGGQLVTEVTKKEDSCQLGYSAGPCMGMTSRYFYNGTSMACETFQYGGCMGNGNNFVTEKECLQTCRTVAACNLPIVRGPCRAFIQLWAFDAVKGKCVLFPYGGCQGNGNKFYSEKECREYCGVPGDGDEELLRFSN |  | concentration range of dose-dependent inhibition of syncytium formation [3]: 0.1 to 1 mM |
